Assays:
[1] = system: epidermal stem cells; experiment: Culturing of fresh human skin with agents, fluorescent immunostaining for Ki-67 and MCSP; assay type: cell-based; conditions: fresh human abdominal skin, final concentration 0.01%
Protocol: Fresh skin samples taken from the abdominal regions of participants (aged 20 to 30) with informed consent were purchased from KAC Co., Ltd. The samples were cultured in medium comprising an equal mixture of 10% FBS-DMEM (Thermo Fisher Scientific K.K., 11885084) and Humedia-KG2 (KURABO Industries Ltd., KK-2150S) with addition of 1-(2-hydroxyethyl)-2-imidazolidinone (“S173”, final concentration: 0.01%), which has an effect of inhibiting both MMP-9 and heparanase, […]”, final concentration: 0.01%), or a combination of 1-(2-hydroxyethyl)-2-imidazolidinone and […]”, final concentration: 0.01%). As a control, culturing was carried out in medium containing an equal amount of DMSO solvent lacking these agents. Medium was exchanged daily, and skin tissue slices were collected on the 2nd day (Day2). Following the AMeX method, fresh human skin was dehydrated and fixed using cold acetone and exchanged with acetone, methyl benzoate and xylene in that order, and then embedded in paraffin. Slices with thicknesses of 3 μm were prepared for tissue staining. Paraffin slices cut to 3 μm thicknesses were deparaffinized with xylene and hydrated using EtOH. Antibodies for Ki-67 (SP6) (Thermo Fisher Scientific K.K., RM-9106-S, rabbit […] monoclonal antibody) and antibodies for MCSP (melanoma-associated chondroitin sulphate proteoglycan) (Millipore, MAB2029, 9.2.27, mouse monoclonal antibody) were used for fluorescent immunostaining.

[2] = system: epidermal stem cells; conditions: disclosed in NPL 1 (Iriyama et al., Scientific Reports 2020); cited from earlier work
[3] = Day2, compared to control without addition of agent (Day2 control)

## O=C1NCCN1CCO [S173, 1-(2-hydroxyethyl)-2-imidazolidinone]
[1]; [3]
  number of Ki67-positive cells (cell proliferation marker): increased
  number of MCSP-positive cells (epidermal basal stem cell marker): increased
[1]; Day2, compared to the control
  number of Ki67+MCSP-positive cells: increased
[1]; after culturing for 2 days, compared to Day0 level
  number of stem cells (MCSP-positive) relative to Day0: maintained at the level of Day0
[2]
  effect on epidermal stem cell counts: maintaining epidermal stem cell counts
